Experimental findings from patent publication US20220079894A1, “STABLE PHARMACEUTICAL COMPOSITIONS” (priority 2020, published 2022) are described below.

This data set is described as follows: NDMA content of Metformin Extended Release Tablets by LC-MS. It is filed as physicochemical. The settings on record: active substance of lot XP9004. On the procedure:
Of particular concern is the level of NDMA in a class of anti-diabetic drugs including metformin hydrochloride tablets. Since these drugs are administered over a long period of time to patients, the amount of NDMA impurity in such products is of particular concern. It has been established that the 96 ng is the Acceptable Daily Intake Limit (ADI) for N-Nitrosodimethylamine (NDMA) in Metformin Hydrochloride tablets. The levels of NDMA in metformin hydrochloride tablets can be determined by analytical methods like Liquid Chromatography-Mass Spectrometry. Other drugs that can have similar issues are anti-diabetic drugs, a drug to treat Gastroesophageal Reflux Diseases (GERD) or an Angiotensis II receptor antagonist drug (ARBs).
This meant that the potential daily exposure of NDMA in the product was 160 ng/day

Where a name gives a salt, the structure may show the parent alone.

With `CN(C)C(=N)N=C(N)N` [active substance, Metformin Hydrochloride], the “NDMA in the active substance used in the lot” value is on record as “no detectable NDMA”.
